The target in assay [1] is T1, NPY Y2 receptor (Homo sapiens, UniProt P49146).
T1 sequence (P49146 1-381): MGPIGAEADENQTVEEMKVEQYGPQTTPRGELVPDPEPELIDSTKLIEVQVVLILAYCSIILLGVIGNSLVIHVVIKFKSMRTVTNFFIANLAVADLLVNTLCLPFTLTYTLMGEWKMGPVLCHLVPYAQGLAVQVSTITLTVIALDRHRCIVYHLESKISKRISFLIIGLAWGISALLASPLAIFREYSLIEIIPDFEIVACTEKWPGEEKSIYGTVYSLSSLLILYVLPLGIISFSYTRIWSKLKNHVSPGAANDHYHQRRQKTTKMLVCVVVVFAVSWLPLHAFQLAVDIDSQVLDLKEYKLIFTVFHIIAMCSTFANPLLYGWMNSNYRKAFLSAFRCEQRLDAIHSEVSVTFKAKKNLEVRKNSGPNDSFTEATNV
In words: Neuropeptide Y2 pKB assay (FLIPR, KAN-Ts cells stably expressing chimeric G proteins). The format is cell-based. To be noted: apparent pKB, modified Cheng-Prusoff correction. As to the method: The assay was performed using the fluorimetric imaging plate reader (FLIPR) format as described in Dautzenberg, F. M., Biochemical Pharmacology 2005, 69, 1493.
KAN-Ts cells stably expressing chimeric G proteins were seeded at a density of 100,000 cells into poly-d-lysine coated 384-well blackwall, clear-bottom microtiter plates (Corning, N.Y.). One day later, the medium was removed and 50 μl loading medium DMEM high glucose, without serum, supplemented with 10 mM HEPES-acid, 0.1% BSA, 5 mM probenecid and 2 μM Fluo-3AM was added. Cells were loaded for 1 h at 37° C., washed twice with 50 μl assay buffer (5 mM HEPES-acid, 140 mM NaCl, 1 mM MgCl2, 5 mM KCl, 10 mM glucose) and then 30 μl assay buffer was added. Cells were further pre-incubated at room temperature before adding agonists or agonists plus antagonists in 20 μl assay buffer and then measured on a T-channel fluorometric imaging plate reader (FLIPR, Molecular Devices, Sunnyvale, Calif.). Antagonistic potency values were converted to apparent pKB values using a modified Cheng-Prusoff correction. Apparent pKB was calculated as pKB=−log IC50/1+[conc agonist/EC50].

For assay [2], the target named is T1, NPY Y2 receptor. In words: Neuropeptide Y2 radioligand binding assay ([125I]PYY, KAN-Ts membranes). Set-up: endogenous in cells; host or cells: KAN-Ts cells (membrane preparation). To be noted: for IC50: KAN-Ts membranes endogenously expressing Y2, [125I]PYY (80 pM), 1 h at rt. In outline: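 Membranes from KAN-Ts cells with endogenous Y2 receptors, incubated with 80 pM [125I]PYY ± compound for 1 h at rt in HEPES/NaCl/CaCl2/MgSO4 buffer, then filtered and counted. Nonspecific binding defined with […]. IC50 from sigmoidal fit; Ki = IC50/(1+C/KD).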

`CCC(CC)C(=O)Nc1ccc(N2CCN(C(c3ccccc3)c3noc(C)n3)CC2)c(F)c1` (stereo not shown) [Compound 239, 2-Ethyl-N-(3-fluoro-4-{4-[(5-methyl-[1,2,4]-oxadiazol-3-yl)-phenyl-methyl]-piperazin-1-yl}-phenyl)-butyramide]: the Kb at NPY Y2 receptor [1] was 12.6 nM. In addition, the IC50 at NPY Y2 receptor [2] turned out to be 13 nM.

`CCC(CC)C(=O)Nc1ccc(N2CCN(C(c3ccccc3)c3noc(-c4ccccc4)n3)CC2)c(F)c1` (stereo not shown) [Compound 240, 2-Ethyl-N-(3-fluoro-4-{4-[phenyl-(5-phenyl-[1,2,4]-oxadiazol-3-yl)-methyl]-piperazin-1-yl}-phenyl)-butyramide]: at NPY Y2 receptor [1], the Kb was 126 nM. On NPY Y2 receptor [2], this compound yielded a half-maximal inhibitory concentration (IC50) of 39 nM.

On to `CCC(CC)C(=O)Nc1ccc(N2CCN(C(c3ccc(F)cc3)c3ncco3)CC2)c(C#N)c1` (stereo not shown) [Compound 139, N-(3-Cyano-4-{4-[(4-fluoro-phenyl)-oxazol-2-yl-methyl]-piperazin-1-yl}-phenyl)-2-ethyl-butyramide], for which the Kb at NPY Y2 receptor [1] was 25.1 nM. At NPY Y2 receptor [2], this compound displayed an IC50 of 21 nM.

On to `CCC(CC)C(=O)Nc1ccc(N2CCN(C(c3ccccc3)c3nc4ccccc4s3)CC2)c(F)c1` (stereo not shown) [Compound 168, N-{4-[4-(Benzothiazol-2-yl-phenyl-methyl)-piperazin-1-yl]-3-fluoro-phenyl}-2-ethyl-butyramide], for which the Kb at NPY Y2 receptor [1] was 70.8 nM. This compound came in with a concentration for half-maximal inhibition (IC50) on NPY Y2 receptor [2] of 58 nM.

On to `CCC(CC)C(=O)Nc1ccc(N2CCN(C(c3ccccc3)c3ncco3)CC2)c(C)c1` (stereo not shown) [Compound 85, 2-Ethyl-N-{3-methyl-4-[4-(oxazol-2-yl-phenyl-methyl)-piperazin-1-yl]-phenyl}-butyramide], for which the Kb at NPY Y2 receptor [1] was 126 nM. The compound further gave a concentration for half-maximal inhibition (IC50) on NPY Y2 receptor [2] of 75 nM.

As to `Cc1noc(C)c1C(=O)Nc1ccc(N2CCN(C(c3ccccc3)c3ccccc3)CC2)c(C#N)c1` [Compound 302, N-{3-Cyano-4-[4-(diphenylmethyl)piperazin-1-yl]phenyl}-3,5-dimethylisoxazole-4-carboxamide], the Kb on NPY Y2 receptor [1] was 501 nM. Besides, the Ki on NPY Y2 receptor [2] (apparent Ki=IC50/(1+C/KD)) was 14 nM.

Turning to `CCC(CC)C(=O)Nc1ccc(N2CCN(C(c3ccccc3)c3ccccn3)CC2)c(F)c1` (stereo not shown) [Compound 33, 2-Ethyl-N-{3-fluoro-4-[4-(phenyl-pyridin-2-yl-methyl)-piperazin-1-yl]-phenyl}-butyramide], the Kb at NPY Y2 receptor [1] is 20 nM. The compound further yielded an IC50 at NPY Y2 receptor [2] of 18 nM.

With `Cc1noc(C)c1C(=O)Nc1ccc(N2CCN(C(c3ccccc3)c3ncco3)CC2)c(F)c1` (stereo not shown) [Compound 113, 3,5-Dimethyl-isoxazole-4-carboxylic acid {3-fluoro-4-[4-(oxazol-2-yl-phenyl-methyl)-piperazin-1-yl]-phenyl}-amide], the Kb at NPY Y2 receptor [1] is 200 nM. On NPY Y2 receptor [2], this compound came in with an IC50 of 140 nM.

Regarding `CCC(CC)C(=O)Nc1ccc(N2CCN(C(c3ccc(C#N)cc3)c3ncco3)CC2)c(C#N)c1` (stereo not shown) [Compound 145, N-(3-Cyano-4-{4-[(4-cyano-phenyl)-oxazol-2-yl-methyl]-piperazin-1-yl}-phenyl)-2-ethyl-butyramide], at NPY Y2 receptor [1], the Kb was 63.1 nM. The compound further came in with an IC50 at NPY Y2 receptor [2] of 33 nM.

For `CCC(CC)C(=O)Nc1ccc(N2CCN(C(c3ccccc3)c3cccnc3)CC2)c(F)c1` (stereo not shown) [Compound 24, 2-Ethyl-N-{3-fluoro-4-[4-(phenyl-pyridin-3-yl-methyl)-piperazin-1-yl]-phenyl}-butyramide], the Kb on NPY Y2 receptor [1] was 79.4 nM. At NPY Y2 receptor [2], the IC50 turned out to be 40 nM.

`CCC(CC)C(=O)Nc1ccc(N2CCN(C(c3ccccc3)c3nc(C)no3)CC2)c(F)c1` (stereo not shown) [Compound 2, 2-Ethyl-N-(3-fluoro-4-{4-[(3-methyl-[1,2,4]-oxadiazol-5-yl)-phenyl-methyl]-piperazin-1-yl}phenyl)-butyramide]: the Kb at NPY Y2 receptor [1] was 39.8 nM. For the same compound, at NPY Y2 receptor [2], the half-inhibitory concentration (IC50) came out at 27 nM.

As usually defined, the IC50 is the concentration at which inhibition is half-maximal. A higher IC50 goes with lower potency.

These data come from patent US20120129870A1, “PIPERAZINYL DERIVATIVES USEFUL AS MODULATORS OF THE NEUROPEPTIDE Y2 RECEPTOR” (priority 2007, published 2012).
